Results: ChEMBL document CHEMBL4507277

Tests used:
[1] = system: Tyrosine-protein kinase ABL1 (Homo sapiens), P00519 [E255K]; conditions: Compound concentration 1000.0 nM
[2] = system: Tyrosine-protein kinase ABL1 (Homo sapiens), P00519 [F317I]; conditions: Compound concentration 1000.0 nM
[3] = target: Tyrosine-protein kinase ABL1 (Homo sapiens) (UniProt P00519); conditions: Compound concentration 1000.0 nM
[4] = target: Atypical kinase COQ8A, mitochondrial (Homo sapiens) (UniProt Q8NI60); conditions: Compound concentration 1000.0 nM
[5] = target: Mitogen-activated protein kinase kinase kinase 5 (Homo sapiens) (UniProt Q99683); conditions: Compound concentration 1000.0 nM
[6] = target: BMP-2-inducible protein kinase (Homo sapiens) (UniProt Q9NSY1); conditions: Compound concentration 1000.0 nM
Sequence of BMP-2-inducible protein kinase (Homo sapiens) (Q9NSY1 whole entry, looked up): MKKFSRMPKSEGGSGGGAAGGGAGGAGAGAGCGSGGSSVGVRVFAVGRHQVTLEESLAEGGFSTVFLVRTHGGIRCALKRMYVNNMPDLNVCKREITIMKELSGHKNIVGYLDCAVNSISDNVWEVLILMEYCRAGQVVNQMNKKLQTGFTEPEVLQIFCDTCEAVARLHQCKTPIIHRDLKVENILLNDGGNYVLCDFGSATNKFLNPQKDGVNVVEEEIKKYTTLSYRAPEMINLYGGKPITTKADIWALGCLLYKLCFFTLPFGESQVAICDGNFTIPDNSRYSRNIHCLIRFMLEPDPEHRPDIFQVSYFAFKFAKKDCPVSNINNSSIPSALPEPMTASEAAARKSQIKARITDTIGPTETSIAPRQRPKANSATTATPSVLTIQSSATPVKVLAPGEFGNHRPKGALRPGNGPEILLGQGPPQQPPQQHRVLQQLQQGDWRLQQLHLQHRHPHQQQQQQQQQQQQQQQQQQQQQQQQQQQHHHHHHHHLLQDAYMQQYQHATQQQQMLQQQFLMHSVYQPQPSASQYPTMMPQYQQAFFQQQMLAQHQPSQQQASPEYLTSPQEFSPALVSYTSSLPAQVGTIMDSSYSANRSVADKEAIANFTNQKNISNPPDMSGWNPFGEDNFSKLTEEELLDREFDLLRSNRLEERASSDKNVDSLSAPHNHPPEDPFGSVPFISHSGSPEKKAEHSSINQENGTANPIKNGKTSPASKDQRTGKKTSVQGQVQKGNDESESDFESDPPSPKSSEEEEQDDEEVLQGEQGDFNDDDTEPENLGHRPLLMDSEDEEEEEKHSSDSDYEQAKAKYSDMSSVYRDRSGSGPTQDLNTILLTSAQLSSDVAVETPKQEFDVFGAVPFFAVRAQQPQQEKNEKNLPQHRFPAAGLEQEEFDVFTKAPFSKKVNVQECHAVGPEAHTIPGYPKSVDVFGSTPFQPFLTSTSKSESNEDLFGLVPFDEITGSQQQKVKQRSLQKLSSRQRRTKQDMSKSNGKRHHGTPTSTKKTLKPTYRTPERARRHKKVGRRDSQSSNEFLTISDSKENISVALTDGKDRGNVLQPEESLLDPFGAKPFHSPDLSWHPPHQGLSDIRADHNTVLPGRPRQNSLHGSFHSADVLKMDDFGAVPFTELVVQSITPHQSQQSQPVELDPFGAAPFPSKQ

[7] = target: Citron Rho-interacting kinase (Homo sapiens) (UniProt O14578); conditions: Compound concentration 1000.0 nM
[8] = target: Serine/threonine-protein kinase DCLK1 (Homo sapiens) (UniProt O15075); conditions: Compound concentration 1000.0 nM
[9] = target: Epidermal growth factor receptor (Homo sapiens) (UniProt P00533); conditions: Compound concentration 1000.0 nM
[10] = target: Ephrin type-A receptor 2 (Homo sapiens) (UniProt P29317); conditions: Compound concentration 1000.0 nM
[11] = system: Receptor-type tyrosine-protein kinase FLT3 (Homo sapiens), P36888 [D835H]; conditions: Compound concentration 1000.0 nM
[12] = target: Homeodomain-interacting protein kinase 2 (Homo sapiens) (UniProt Q9H2X6); conditions: Compound concentration 1000.0 nM
[13] = target: Mitogen-activated protein kinase kinase kinase kinase 1 (Homo sapiens) (UniProt Q92918); conditions: Compound concentration 1000.0 nM
[14] = target: Tyrosine-protein kinase JAK2 (Homo sapiens) (UniProt O60674); conditions: Compound concentration 1000.0 nM
[15] = target: LIM domain kinase 2 (Homo sapiens) (UniProt P53671); conditions: Compound concentration 1000.0 nM
Sequence of LIM domain kinase 2 (Homo sapiens) (P53671 whole entry, looked up, the tested form may be a part): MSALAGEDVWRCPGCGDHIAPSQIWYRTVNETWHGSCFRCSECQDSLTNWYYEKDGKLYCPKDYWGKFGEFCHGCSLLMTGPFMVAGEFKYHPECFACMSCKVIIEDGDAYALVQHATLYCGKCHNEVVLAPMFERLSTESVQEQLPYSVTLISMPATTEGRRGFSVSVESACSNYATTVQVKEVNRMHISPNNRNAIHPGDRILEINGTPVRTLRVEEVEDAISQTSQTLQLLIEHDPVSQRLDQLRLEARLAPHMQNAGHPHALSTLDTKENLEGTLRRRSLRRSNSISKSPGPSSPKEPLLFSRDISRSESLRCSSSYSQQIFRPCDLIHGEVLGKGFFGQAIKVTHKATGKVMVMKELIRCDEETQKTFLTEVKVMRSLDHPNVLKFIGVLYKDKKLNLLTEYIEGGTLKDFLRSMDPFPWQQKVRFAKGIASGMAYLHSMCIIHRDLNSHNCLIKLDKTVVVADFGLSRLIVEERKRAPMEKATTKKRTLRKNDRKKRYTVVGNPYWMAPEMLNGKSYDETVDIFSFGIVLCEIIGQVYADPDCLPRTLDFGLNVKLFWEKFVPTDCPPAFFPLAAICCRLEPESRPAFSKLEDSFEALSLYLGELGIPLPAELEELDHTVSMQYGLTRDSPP

[16] = target: Mitogen-activated protein kinase kinase kinase 13 (Homo sapiens) (UniProt O43283); conditions: Compound concentration 1000.0 nM
[17] = target: Serine/threonine-protein kinase MARK2 (Homo sapiens) (UniProt Q7KZI7); conditions: Compound concentration 1000.0 nM
[18] = target: Dual specificity mitogen-activated protein kinase kinase 2 (Homo sapiens) (UniProt P36507); conditions: Compound concentration 1000.0 nM
[19] = target: Dual specificity mitogen-activated protein kinase kinase 5 (Homo sapiens) (UniProt Q13163); conditions: Compound concentration 1000.0 nM
Sequence of Dual specificity mitogen-activated protein kinase kinase 5 (Homo sapiens) (Q13163 whole entry): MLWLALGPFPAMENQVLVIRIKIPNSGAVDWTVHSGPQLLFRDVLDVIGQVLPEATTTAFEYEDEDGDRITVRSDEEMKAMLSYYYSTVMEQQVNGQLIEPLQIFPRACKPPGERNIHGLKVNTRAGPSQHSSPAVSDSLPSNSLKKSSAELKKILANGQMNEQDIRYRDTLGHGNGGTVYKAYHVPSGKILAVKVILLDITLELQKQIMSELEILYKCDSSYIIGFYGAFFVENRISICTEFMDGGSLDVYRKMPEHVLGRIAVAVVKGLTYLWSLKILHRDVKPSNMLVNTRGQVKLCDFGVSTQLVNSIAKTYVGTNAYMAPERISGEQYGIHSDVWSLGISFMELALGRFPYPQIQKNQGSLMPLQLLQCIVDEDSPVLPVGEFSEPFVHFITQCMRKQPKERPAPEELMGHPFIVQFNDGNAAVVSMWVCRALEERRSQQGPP

[20] = target: Misshapen-like kinase 1 (Homo sapiens) (UniProt Q8N4C8); conditions: Compound concentration 1000.0 nM
[21] = target: Serine/threonine-protein kinase Nek11 (Homo sapiens) (UniProt Q8NG66); conditions: Compound concentration 1000.0 nM
[22] = target: Serine/threonine-protein kinase Nek2 (Homo sapiens) (UniProt P51955); conditions: Compound concentration 1000.0 nM
[23] = target: Serine/threonine-protein kinase PAK 2 (Homo sapiens) (UniProt Q13177); conditions: Compound concentration 1000.0 nM
[24] = system: Phosphatidylinositol 4,5-bisphosphate 3-kinase catalytic subunit alpha isoform (Homo sapiens), P42336 [H1047L]; conditions: Compound concentration 1000.0 nM
[25] = target: Phosphatidylinositol 4-kinase beta (Homo sapiens) (UniProt Q9UBF8); conditions: Compound concentration 1000.0 nM
[26] = target: Serine/threonine-protein kinase D3 (Homo sapiens) (UniProt O94806); conditions: Compound concentration 1000.0 nM
[27] = system: Proto-oncogene tyrosine-protein kinase receptor Ret (Homo sapiens), P07949 [V804M]; conditions: Compound concentration 1000.0 nM
Sequence of Proto-oncogene tyrosine-protein kinase receptor Ret (Homo sapiens), P07949 [V804M] (P07949 whole entry V804M): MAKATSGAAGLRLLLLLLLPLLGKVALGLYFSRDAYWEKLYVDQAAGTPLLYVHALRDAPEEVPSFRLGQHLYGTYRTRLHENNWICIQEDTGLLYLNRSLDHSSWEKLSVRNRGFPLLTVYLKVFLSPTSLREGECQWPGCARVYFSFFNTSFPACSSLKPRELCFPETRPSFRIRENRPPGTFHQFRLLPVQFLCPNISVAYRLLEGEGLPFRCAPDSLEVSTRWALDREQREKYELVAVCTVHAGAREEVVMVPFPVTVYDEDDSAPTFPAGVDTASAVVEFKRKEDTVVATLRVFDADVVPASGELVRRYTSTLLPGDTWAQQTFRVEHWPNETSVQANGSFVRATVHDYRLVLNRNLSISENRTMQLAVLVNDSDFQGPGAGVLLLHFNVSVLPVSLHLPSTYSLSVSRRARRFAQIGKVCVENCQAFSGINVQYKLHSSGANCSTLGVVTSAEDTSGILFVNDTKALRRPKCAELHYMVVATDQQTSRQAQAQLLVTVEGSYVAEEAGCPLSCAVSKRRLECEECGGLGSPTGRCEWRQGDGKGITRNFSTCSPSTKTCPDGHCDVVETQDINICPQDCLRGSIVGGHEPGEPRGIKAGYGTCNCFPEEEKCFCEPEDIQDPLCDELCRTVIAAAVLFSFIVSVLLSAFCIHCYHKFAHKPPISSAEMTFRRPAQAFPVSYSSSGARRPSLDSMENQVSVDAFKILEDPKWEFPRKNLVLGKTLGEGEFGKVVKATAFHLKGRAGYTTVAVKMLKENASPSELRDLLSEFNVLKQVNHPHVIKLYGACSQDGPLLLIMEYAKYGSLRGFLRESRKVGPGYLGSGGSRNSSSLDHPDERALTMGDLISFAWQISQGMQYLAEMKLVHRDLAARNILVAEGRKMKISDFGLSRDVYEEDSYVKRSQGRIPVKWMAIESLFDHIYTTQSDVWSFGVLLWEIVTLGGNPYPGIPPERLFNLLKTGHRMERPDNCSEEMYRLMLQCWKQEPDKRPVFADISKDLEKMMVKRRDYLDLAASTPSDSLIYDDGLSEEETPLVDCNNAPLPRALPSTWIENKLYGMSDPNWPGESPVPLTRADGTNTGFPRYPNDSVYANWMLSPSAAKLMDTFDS

[28] = target: Ribosomal protein S6 kinase alpha-5 (Homo sapiens) (UniProt O75582); conditions: Compound concentration 1000.0 nM
Sequence of Ribosomal protein S6 kinase alpha-5 (Homo sapiens) (O75582 whole entry, looked up): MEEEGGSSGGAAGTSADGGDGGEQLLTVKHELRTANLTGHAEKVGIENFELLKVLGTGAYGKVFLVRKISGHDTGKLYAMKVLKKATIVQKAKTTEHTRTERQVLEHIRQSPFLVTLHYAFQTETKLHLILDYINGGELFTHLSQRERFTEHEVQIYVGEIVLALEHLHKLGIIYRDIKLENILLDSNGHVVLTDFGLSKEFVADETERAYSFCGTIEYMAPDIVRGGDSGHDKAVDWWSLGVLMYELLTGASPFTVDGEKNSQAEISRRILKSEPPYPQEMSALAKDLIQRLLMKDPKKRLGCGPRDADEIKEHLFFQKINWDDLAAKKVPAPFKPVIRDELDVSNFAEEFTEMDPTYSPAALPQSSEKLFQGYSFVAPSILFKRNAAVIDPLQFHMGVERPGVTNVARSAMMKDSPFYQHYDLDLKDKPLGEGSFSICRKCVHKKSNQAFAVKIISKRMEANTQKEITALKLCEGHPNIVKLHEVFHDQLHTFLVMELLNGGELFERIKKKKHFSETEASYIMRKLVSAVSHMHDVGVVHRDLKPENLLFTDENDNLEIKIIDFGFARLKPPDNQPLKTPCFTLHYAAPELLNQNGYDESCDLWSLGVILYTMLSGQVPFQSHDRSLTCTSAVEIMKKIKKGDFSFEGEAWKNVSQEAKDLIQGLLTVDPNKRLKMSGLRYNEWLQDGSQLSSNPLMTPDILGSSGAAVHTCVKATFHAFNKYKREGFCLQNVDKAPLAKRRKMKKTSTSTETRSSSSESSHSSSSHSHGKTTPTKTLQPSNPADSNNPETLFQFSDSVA

[29] = target: Ribosomal protein S6 kinase alpha-5 (Homo sapiens) (UniProt O75582); conditions: Compound concentration 1000.0 nM; remark: listed apart in the source
[30] = target: Ribosomal protein S6 kinase alpha-6 (Homo sapiens) (UniProt Q9UK32); conditions: Compound concentration 1000.0 nM
[31] = target: Uncharacterized serine/threonine-protein kinase SBK3 (Homo sapiens) (UniProt P0C264); conditions: Compound concentration 1000.0 nM
Sequence of Uncharacterized serine/threonine-protein kinase SBK3 (Homo sapiens) (P0C264 whole entry): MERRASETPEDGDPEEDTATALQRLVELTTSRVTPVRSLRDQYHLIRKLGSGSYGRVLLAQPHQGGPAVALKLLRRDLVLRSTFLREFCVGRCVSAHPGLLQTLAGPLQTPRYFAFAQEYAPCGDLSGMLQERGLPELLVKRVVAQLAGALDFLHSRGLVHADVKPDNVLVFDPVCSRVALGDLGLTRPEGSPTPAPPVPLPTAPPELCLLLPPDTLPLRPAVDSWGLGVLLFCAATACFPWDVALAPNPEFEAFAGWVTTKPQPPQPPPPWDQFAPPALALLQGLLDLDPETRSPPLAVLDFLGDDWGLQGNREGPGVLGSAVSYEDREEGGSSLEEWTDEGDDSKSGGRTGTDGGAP

[32] = target: Serine/threonine-protein kinase Sgk2 (Homo sapiens) (UniProt Q9HBY8); conditions: Compound concentration 1000.0 nM
[33] = target: Serine/threonine-protein kinase TAO3 (Homo sapiens) (UniProt Q9H2K8); conditions: Compound concentration 1000.0 nM
[34] = target: Dual specificity testis-specific protein kinase 1 (Homo sapiens) (UniProt Q15569); conditions: Compound concentration 1000.0 nM
[35] = target: Vascular endothelial growth factor receptor 2 (Homo sapiens) (UniProt P35968); conditions: Compound concentration 1000.0 nM
[36] = target: Serine/threonine-protein kinase 25 (Homo sapiens) (UniProt O00506); conditions: Compound concentration 1000.0 nM
[37] = target: 5-hydroxytryptamine receptor 2B (Homo sapiens) (UniProt P41595); conditions: Compound concentration 10.0 uM
[38] = target: 5-hydroxytryptamine receptor 2C (Homo sapiens) (UniProt P28335); conditions: Compound concentration 10.0 uM
Sequence of 5-hydroxytryptamine receptor 2C (Homo sapiens) (P28335 whole entry): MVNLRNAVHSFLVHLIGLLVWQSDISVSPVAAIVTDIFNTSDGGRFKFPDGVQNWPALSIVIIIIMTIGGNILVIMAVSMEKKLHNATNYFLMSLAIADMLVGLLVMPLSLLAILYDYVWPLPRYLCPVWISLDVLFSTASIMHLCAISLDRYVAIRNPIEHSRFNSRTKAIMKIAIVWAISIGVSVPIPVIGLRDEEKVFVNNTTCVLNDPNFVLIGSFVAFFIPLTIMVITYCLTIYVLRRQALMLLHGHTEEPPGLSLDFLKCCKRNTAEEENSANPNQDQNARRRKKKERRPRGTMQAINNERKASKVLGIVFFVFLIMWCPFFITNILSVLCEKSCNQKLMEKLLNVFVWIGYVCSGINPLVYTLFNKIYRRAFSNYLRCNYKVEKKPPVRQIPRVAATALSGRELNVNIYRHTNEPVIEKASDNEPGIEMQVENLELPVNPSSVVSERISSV

[39] = target: T1, D(4) dopamine receptor (Homo sapiens) (UniProt P21917); conditions: Compound concentration 10.0 uM
T1 sequence (whole entry): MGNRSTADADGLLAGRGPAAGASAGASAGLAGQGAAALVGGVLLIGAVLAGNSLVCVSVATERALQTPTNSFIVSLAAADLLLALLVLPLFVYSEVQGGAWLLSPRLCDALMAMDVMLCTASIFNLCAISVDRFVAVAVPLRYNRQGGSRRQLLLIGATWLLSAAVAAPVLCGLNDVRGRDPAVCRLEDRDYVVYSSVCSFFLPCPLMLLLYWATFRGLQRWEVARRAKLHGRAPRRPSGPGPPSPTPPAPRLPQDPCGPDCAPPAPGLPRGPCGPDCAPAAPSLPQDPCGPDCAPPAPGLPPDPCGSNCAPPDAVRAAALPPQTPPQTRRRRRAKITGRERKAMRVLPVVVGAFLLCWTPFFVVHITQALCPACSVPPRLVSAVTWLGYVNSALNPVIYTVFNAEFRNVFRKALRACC

CCS(=O)(=O)c1cc2cc(C[C@](O)(CC(C)(C)c3ccc(F)cc3C(N)=O)C(F)(F)F)[nH]c2cn1
inactive: residual activity [1] 92% | residual activity [2] 94% | residual activity [3] 100% | residual activity [4] 92% | residual activity [5] 100% | residual activity [6] 83% | residual activity [7] 100% | residual activity [8] 99% | residual activity [9] 81% | residual activity [10] 81% | residual activity [11] 100% | residual activity [12] 100% | residual activity [13] 100% | residual activity [14] 53% | residual activity [15] 100% | residual activity [16] 90% | residual activity [17] 78% | residual activity [18] 95% | residual activity [19] 100% | residual activity [20] 89% | residual activity [21] 93% | residual activity [22] 100% | residual activity [23] 86% | residual activity [24] 96% | residual activity [25] 100% | residual activity [26] 99% | residual activity [27] 100% | residual activity [28] 94% | residual activity [29] 100% | residual activity [30] 82% | residual activity [31] 100% | residual activity [32] 90% | residual activity [33] 86% | residual activity [34] 100% | residual activity [35] 83% | residual activity [36] 86% | inhibition [37] 26.1% | inhibition [38] 0.64% | inhibition [39] -7.41%

CCS(=O)(=O)c1cc2cc(C[C@@](O)(CC(C)(C)c3ccc(F)cc3C(N)=O)C(F)(F)F)[nH]c2cn1
inactive: residual activity [1] 90% | residual activity [2] 100% | residual activity [3] 71% | residual activity [4] 95% | residual activity [5] 100% | residual activity [6] 69% | residual activity [7] 96% | residual activity [8] 100% | residual activity [9] 96% | residual activity [10] 67% | residual activity [11] 100% | residual activity [12] 100% | residual activity [13] 100% | residual activity [14] 100% | residual activity [15] 100% | residual activity [16] 82% | residual activity [17] 100% | residual activity [18] 67% | residual activity [19] 81% | residual activity [20] 79% | residual activity [21] 100% | residual activity [22] 94% | residual activity [23] 94% | residual activity [24] 97% | residual activity [25] 100% | residual activity [26] 100% | residual activity [27] 74% | residual activity [28] 100% | residual activity [29] 69% | residual activity [30] 100% | residual activity [31] 94% | residual activity [32] 57% | residual activity [33] 78% | residual activity [34] 77% | residual activity [35] 92% | residual activity [36] 87% | inhibition [37] -7.85% | inhibition [38] 7.33% | inhibition [39] 5.32%
